This test deals with BRD4 (Homo sapiens, UniProt O60885). The test can be described thus: PROTAC-induced BRD4 degradation in HCT116 cells, immunoblot, […] h. It counts as cell-based. (In western blotting, separated proteins are transferred to a membrane and probed.)

`Cc1ncsc1-c1ccc(CNC(=O)[C@@H]2C[C@@H](O)CN2C(=O)[C@@H](NC(=O)COCCCCOCCCOc2ccc(NC(=O)C[C@@H]3N=C(c4ccc(Cl)cc4)c4c(sc(C)c4C)-n4c(C)nnc43)cc2)C(C)(C)C)cc1` [A743] registered a DC50 of 23.1 nM.

In general, DC50 refers to the concentration at which degradation of the target reaches its halfway point. Read a high DC50 as degradation only at high concentration.

The values are drawn from PMC6318015 (Cancer research, 2018).
